{
  "source": "patent US20250152702A1",
  "about": "“EPICHAPEROME INHIBITION TO IMPROVE T CELL RESPONSES” (priority 2023, published 2025)",
  "key": {"anti-OVA IgG": {"tested_on": "anti-OVA IgG", "test": "OVA immunization of mice, anti-OVA antibody by ELISA", "type": "in vivo, C57BL/6 mice", "settings": "PU-H71 at the time of priming", "description": "FIGS. 3A-3H. Disruption of the epichaperome using PU-H71 improves OVA-specific T cells response and anti-tumor immune response in a mouse model. (A) C57BL/6 (B6) mice were injected intraperitoneally (i.p.) with PU-H71 (75 mg/kg) n=8 or PBS n=8 on days 0, 3 and 7. On day 1, all mice were immunized subcutaneously (s.c.) with 100 μg OVA emulsified in incomplete Freund's adjuvant (IFA), experimental controls shown in schema. Peripheral blood (PB) was collected on days 0, 5 and 9, and the spleen was collected at the end of the experiment, on day 9. (B, C) T cell immunization against OVA was assessed by measuring IFN[…] release from T cells after exposure with OVA using Elispot assay. Two-tailed T test (D) Anti-OVA IgG in serum was assessed by ELISA. (E) B6 mice were immunized with OVA treated with PU-H71 (75 mg/kg) n=8 or PBS n=8 on days 11, 15 and 18. […] (F) T cell immunization against OVA was assessed by measuring IFN[…] by Elispot assay. […] On day 7 after immunization, mice challenged with OVA-expressing EG.7 tumor cells (H) tumor volume was assessed every 2-3 days using calipers. p values shown for day 13 assessment by one-way ANOVA.\n(§1) The effects of an epichaperome disrupter, PU-H71, were tested on C57BL/6 mice immune responses to ovalbumin (OVA) immunization. OVA-specific T- and B-cell responses were evaluated by ELISPOT and ELISA, respectively. […]"}, "NALM6-BLIV cells": {"tested_on": "NALM6-BLIV cells", "test": "B-ALL NSG mouse model with NALM6-BLIV cells, PU-H71 combined with CART19", "type": "in vivo", "description": "Nalm-6 xenograft: Xenografts will be initiated using CD19^+ B-cell acute lymphoblastic leukemia (B-ALL), Nalm-6 cells expressing luciferase and GFP (BLIV/GFP) transplanted into NSG mice (59). Anti-CD19 CAR T cells (CART19/4-1BB) or non-transduced T cells (NTC) will be administered once engraftment is confirmed by bioluminescence and flow cytometry. Four treatment cohorts will be studied: (1) saline, (2) PU-H71 (75 mg/kg i.p. bi-weekly), (3) CART19/4-1BB, (4) PU-H71 (75 mg/kgi.p. bi-weekly)+CART19/4-1BB. Each cohort will consist of 8 mice, ensuring >80% power at two-sided alpha of 0.05 to detect a standardized effect size of 1.6 in tumor burden and immune cell modulation, and will include both male and female mice. The PU-H71 dose and schedule will be determined based on data (9, 17). Tumor progression will be monitored weekly using bioluminescence imaging, with CAR T cell percentage and phenotype assessed in PB from day 2 onwards and every subsequent week, as published previously (17, 59). Bone marrow (BM) aspirates on day 14 will assess tumor burden and CAR T persistence. At the endpoint, the spleen, BM, and PB will be harvested to determine leukemia burden and CAR T cell phenotype."}, "activated T cells": {"tested_on": "activated T cells", "test": "Activated human T cells treated with PU-H71: survival and surface phenotype by flow cytometry", "type": "cell-based", "description": "FIGS. 2A-2D. Epichaperomes are formed in activated T cells and their disruption impacts T cell activation phenotype but not survival. (A) Resting T cells from healthy donors were assayed for the abundance of epichaperomes by flow cytometry. (B) Purified T cells activated with anti-CD3/CD28 beads were tested for changes in epichaperome abundance 20 h after activation and compared with resting T cells and MV4-11 as a positive control. n=3, One-way ANOVA ** p<0.002, *** p<0.0002 (C, D) T cells were treated with 1 μM PU-H71 upon activation to assess the effect of epichaperome disruption on survival (C) and cell surface phenotype (CD4, CD8, CD25, CD69, HLA-DR) n=3 *p<0.03 two-tailed T-test (D).\nThus, epichaperome formation skews the balance of T cell populations and functions towards an immunosuppressive outcome, a balance that can be restored to a cytotoxic function by epichaperome disruptors. This leads to a role of epichaperome disruptors, such as PU-H71, in CAR T cell cytotoxicity and the ability of epichaperome disruptors, such as, PU-H71, to improve the outcomes of AML patients in the post-transplant setting by improving GvL without affecting GvHD."}, "IFNγ-secreting T cells": {"tested_on": "IFNγ-secreting T cells", "test": "OVA immunization of mice, OVA-specific T cell response by IFNγ ELISPOT", "type": "in vivo, C57BL/6 mice", "description": "(§2) FIGS. 3A-3H. Disruption of the epichaperome using PU-H71 improves OVA-specific T cells response and anti-tumor immune response in a mouse model. (A) C57BL/6 (B6) mice were injected intraperitoneally (i.p.) with PU-H71 (75 mg/kg) n=8 or PBS n=8 on days 0, 3 and 7. On day 1, all mice were immunized subcutaneously (s.c.) with 100 μg OVA emulsified in incomplete Freund's adjuvant (IFA), experimental controls shown in schema. Peripheral blood (PB) was collected on days 0, 5 and 9, and the spleen was collected at the end of the experiment, on day 9. (B, C) T cell immunization against OVA was assessed by measuring IFN[…] release from T cells after exposure with OVA using Elispot assay. Two-tailed T test (D) Anti-OVA IgG in serum was assessed by ELISA. (E) B6 mice were immunized with OVA treated with PU-H71 (75 mg/kg) n=8 or PBS n=8 on days 11, 15 and 18. PB and spleen were collected at the end of the experiment, on day 20. (F) T cell immunization against OVA was assessed by measuring IFN[…] by Elispot assay. […] On day 7 after immunization, mice challenged with OVA-expressing EG.7 tumor cells (H) tumor volume was assessed every 2-3 days using calipers. p values shown for day 13 assessment by one-way ANOVA.\nas §1\nIn vivo: In vivo assessment in immunization model: the well-characterized in vivo immunization model that utilizes chicken ovalbumin (OVA) will be used. […] Antibody production against OVA will be assessed in the peripheral blood (PB) at day 9 to confirm that the immunization took place (40). PU-H71 will be evaluated at different dosing schedules: before OVA administration to assess an effect on priming, shortly after OVA administration to assess an effect on T cell proliferation and polarization, and after the response has been completed (11 days) to evaluate an effect on the already ongoing response (for this cohort, mice will be sacrificed 9 days after PU-H71 treatment). […]"}, "[1]": {"tested_on": "NALM6 (CD19+ B-ALL cell line)", "description": "FIGS. 7A-7C. […] (A) Schematic representation. CART19/4-1BB or control T cells were cultured with NALM6 (CD19^+ B-ALL cell line) for 18 h at a E:T ratio of 1:1. (B) Cytotoxicity was evaluated by flow cytometry and represented as relative to the number of dead cells in the control cells (no effector cells). Experiment performed in triplicate, Error bar represents the SEM, significance assessed using ANOVA test. (C) In vivo testing.\nTo better understand its effect on human T cells and its potential adjuvant effect during cellular therapy, in vitro and in vivo chimeric antigen receptor (CAR)-T cell (CAR-T cells) phenotype and function in the presence of PU-H71 was tested. […] Finally, the therapeutic effect of the combination of PU-H71 and CART19 was evaluated in a B-ALL NSG mouse model using NALM6-BLIV cells, with bioluminescence imaging and flow cytometry (CART19 and leukemic cells) monitoring.\nTo investigate the impact of epichaperome disruption on CAR T cells, CART19/4-1BB was generated and tested. […] Subsequently, the impact of epichaperome disruption on the function of CART19/4-1BB cells was assessed during co-culture with leukemia cells expressing CD19. The cytotoxic effect of CART19/4-1BB cells against Nalm-6 (CD19^+ B-ALL cell line) was measured with or without 1 μM PU-H71 (FIG. 7)."}, "[2]": {"tested_on": "acute myeloid leukemia (AML)", "settings": "cited from earlier work; for exacerbation of GvHD in the patient: patient with donor T cell chimerism after failed allo-HSCT; for duration of complete remission: single agent, AML patient with high epichaperome abundance, post-transplant relapse"}, "Hsp90": {"tested_on": "Hsp90", "settings": "cited from earlier work"}, "[3]": {"tested_on": "E.G7 (OVA+) lymphoma cells", "test": "Anti-tumor response in OVA-immunized mice challenged with E.G7 lymphoma", "type": "in vivo, C57BL/6 mice", "description": "as §2, with “ANOVA. […]” for “ANOVA.”\nIn vivo assessment in an anti-tumor response model: E.G7 cells are OVA-expressing cells derived from the C57BL/6 (H-2b) mouse lymphoma cell line EL4, allowing for the establishment of a syngeneic lymphoma mouse model to evaluate anti-tumor protection after OVA immunization (39). […] At day 7 after immunization, lymphoma cells will be injected subcutaneously into the mice, and tumor growth will be evaluated twice a week using micro calipers. Tumor volume will be determined as mm^3=length×width^2 (41). Survival will be also determined as an endpoint (mice will be euthanized when tumor size reaches 2000 mm^3 or the animals lose more than 10% of weight). Differences in tumor growth and survival will be determined in mice immunized with OVA and PU-H71 compared to the controls OVA+IFA or no immunization. […]"}},
  "note": "“Also recorded” adds a separate entry of the source. Read-outs that look alike come from different tables or passages of the source.",
  "data": [
    {"smiles": "CC(C)NCCCn1c(Sc2cc3c(cc2I)OCO3)nc2c(N)ncnc21", "note": "[PU-H71, 8-[(6-iodo-1,3-benzodioxol-5-yl)sulfanyl]-9-[3-(propan-2-ylamino)propyl]purin-6-amine]", "values": [
      {"measurement": "impact on anti-OVA antibody levels", "setting": "anti-OVA IgG", "value": "without overt impact; also recorded: without an impact"},
      {"measurement": "CART19 numbers in the bone marrow", "setting": "NALM6-BLIV cells", "value": "increases CART19 numbers in the bone marrow"},
      {"measurement": "in vivo antitumor efficacy of CART19 against NALM6", "setting": "NALM6-BLIV cells", "value": "improves their in vivo antitumor efficacy"},
      {"measurement": "CD4 to CD8 ratio", "setting": "activated T cells; 1 μM PU-H71 upon activation", "value": "increase of CD8^+ cells; also recorded: skewed towards more CD8^+ cells"},
      {"measurement": "expression of activation marker CD69", "setting": "activated T cells; 1 μM PU-H71 upon activation", "value": "not significantly changed"},
      {"measurement": "viability of activated T cells", "setting": "activated T cells; 1 μM PU-H71 upon activation with anti-CD3/CD28 beads", "value": "no detrimental effect"},
      {"measurement": "number of IFNγ-secreting T cells (median)", "setting": "IFNγ-secreting T cells; PU-H71 75 mg/kg i.p. at the time of priming, OVA immunization, ELISPOT, n=8, controls 42, p=0.0002", "value": "126 per million of cells"},
      {"measurement": "effect on OVA-specific T cell response", "setting": "IFNγ-secreting T cells; PU-H71 administered once the OVA-specific T cell response was ongoing", "value": "no effect"},
      {"measurement": "impact on T cell phenotype", "setting": "IFNγ-secreting T cells; PU-H71 at the time of priming", "value": "without overt impact; also recorded: without an impact"},
      {"measurement": "in vitro cytotoxicity of CAR-T cells toward NALM6 B-ALL cells", "setting": "[1]", "value": 74.66, "unit": "%"},
      {"measurement": "myelosuppression and drug-related toxicities", "setting": "[2]; patient treated for >5 yrs", "value": "without significant myelosuppression or drug-related extramedullary toxicities"},
      {"measurement": "exacerbation of GvHD in the patient", "setting": "[2]", "value": "did not exacerbate GvHD; also recorded: did not exacerbate these symptoms"},
      {"measurement": "exacerbation of GvHD in the patient", "setting": "[2]; listed as Zelavespib", "value": "without exacerbation of GvHD"},
      {"measurement": "exacerbation of GvHD in the patient", "setting": "[2]; listed as zelavespib", "value": "no clinically relevant exacerbation"},
      {"measurement": "time to complete remission (CR)", "setting": "[2]; single AML patient", "value": "≤ 45", "unit": "days"},
      {"measurement": "duration of complete remission", "setting": "[2]", "value": "over five years"},
      {"measurement": "duration of complete remission", "setting": "[2]; listed as Zelavespib", "value": "> 5", "unit": "years"},
      {"measurement": "duration of complete remission", "setting": "[2]; listed as zelavespib", "value": "over 5 years"},
      {"measurement": "binding preference for Hsp90 form", "setting": "Hsp90", "value": "preferential binding to Hsp90 when it is in the highly integrated complexed form that is the epichaperome"},
      {"measurement": "in vivo anti-tumor immune response / tumor progression", "setting": "[3]; OVA-primed mice plus PU-H71, E.G7 challenge", "value": "significantly decreases tumor progression; also recorded: improved in vivo anti-tumor immune responses"},
      {"measurement": "ability to control tumor progression", "setting": "[3]; PU-H71 without immunization, n=6", "value": 16, "unit": "days"},
      {"measurement": "ability to control tumor progression", "setting": "[3]; mice immunized against OVA without IFA and treated with PU-H71, OVA alone 16 days, saline 14 days, n=8", "value": 18, "unit": "days"}
    ]}
  ]
}
